Data on one compound can be found in patent US11324720B2, “Antiproliferative DNA polymerase inhibitor” (NEW YORK MEDICAL COLLEGE, priority 2018, dated 2022).

In one test the test system is R-BxPC-3 cells. Description: Cell proliferation assay, MTT method. The class given is cell-based, human. Conditions: R-BxPC-3 (cisplatin resistant). The text has this: DNA replication precedes cell division. Thus, cancer cells cannot divide and proliferate without successful chromosomal duplication. A DNA polymerase inhibitor should inhibit cancer cell proliferation. We characterized the antiproliferative properties of zelpolib on a number of cell lines originated from pancreatic cancer (BxPC-3) and breast cancer (MCF7 for ER+ breast cancer). In addition, we developed a cisplatin resistant subline of a pancreatic cancer cell line, R-BxPC3 for our studies as well. We used the MTT method^25 for analyzing cell proliferation. This assay is based on the reduction of 3-(4,5-dimethylthiazol-2-yl)-2,5-diphenyltetrazolium bromide by live cells to an insoluble formazon, which were subsequently dissolved in DMSO and quantified by UV absorbance. Therefore, the cell number is proportional to the optical density in the established linear region. […] The plateau phenomena indicate inhibition of proliferation without cell killing, similar to these observed from hydroxyurea^26, aphidicolin^27, and to a certain extent, methotrexate treatments^28. […]
Human cancer cells (5×10^3-7.5×10^3) were initially seeded in 96-well plates (Cellstar) containing 0.2 ml media per well. […] Formazan crystals were then dissolved in 150 μl DMSO and optical density was read at 490 nm^25. […] Results were analyzed by GraphPad Prism. […]
In general terms: Formazan colour is commonly taken as a measure of viable cells.

The test system of the next test is HEK 293T cells. The experiment in a line: Two plasmid DR-GFP/I-SceI double strand break repair (homologous recombination) assay. It counts as cell-based, human. From the text: In addition to being indispensable for the duplication of chromosomes, Pol δ also plays critical roles in various DNA repair pathways^32. It has been shown that Pol δ is the preferred polymerase for the D-loop extension during homologous recombination repair^33. Thus, we investigated the effect of zelpolib on HR efficiency. We used the two plasmid DR-GFP assay developed by Nakanishi et al^34, which is a modified version of the initial method^35. The first plasmid contains a mutant GFP that has lost the ability to fluoresce. The second plasmid contains the coding region of a restriction enzyme, I-SceI. The co-transfection of the two plasmids will result in the expression of I-SceI, which can digest the DR-GFP plasmid at the mutation site leading to the formation of a double strand break. […] Therefore, the percentage of fluorescent cells is the readout of the efficacy of HR. […] The efficacy of HR was analyzed about 40 hours later by flow cytometry.
The efficacy of homologous recombination was analyzed by a two-plasmids system according to published protocol^34,35. […] Cellular fluorescence for GFP was measured by flow cytometry (Beckman coulter, MoFlo XDP). About 32,000 cells were analyzed per sample. […] The experiment was repeated three more times and statistics were calculated using GraphPad prism software.

Each structure is given as a SMILES string.

On to `COC(=O)c1cc(-c2ccccc2)sc1NC(=S)NNC(=O)CCc1ccc(O)c(O)c1` [zelpolib], for which the “concentration at which antiproliferative effect reaches a plateau” value in the test with R-BxPC-3 cells is given as “about 5 μM”. Moreover, the “reduction in HR efficacy” value with HEK 293T cells (20 μM zelpolib) is listed as “comparable to those induced by siRNA knockdown of BRCA1 or BRCA2 individually”. Besides, the “inhibition of homologous recombination (percentage of GFP fluorescent cells)” value in the test with HEK 293T cells (two concentrations, about 40 hours) was “dose-dependent inhibition of HR”.
